Source: BindingDB's records for patent US20240043440 (Case Western Reserve University, 2024)

These molecules were tested against T1, 15-hydroxyprostaglandin dehydrogenase [NAD(+)] (Homo sapiens, UniProt P15428) (assay: In vitro Assay (1 nM)).
T1 sequence (P15428 whole entry): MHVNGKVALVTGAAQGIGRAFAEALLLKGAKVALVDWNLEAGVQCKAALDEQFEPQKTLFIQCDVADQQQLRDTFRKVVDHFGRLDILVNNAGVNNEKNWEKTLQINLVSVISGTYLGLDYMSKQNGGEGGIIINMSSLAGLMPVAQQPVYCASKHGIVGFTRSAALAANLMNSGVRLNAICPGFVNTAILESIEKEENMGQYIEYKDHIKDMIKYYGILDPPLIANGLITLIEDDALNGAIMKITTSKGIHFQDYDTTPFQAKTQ
Procedure: Each compound for inhibiting enzymatic activity of recombinant 15-PGDH (1 nM) in an in vitro assay.

IC50 [nM]	Compound
1.1	COCCC[S+]([O-])c1sc2nc(-c3cnc(N)nc3)cc(-c3ccccc3)c2c1N (stereo not drawn) [US20240043440, Example 65]
1.4	COCCC[S+]([O-])c1sc2nc(-c3cnn(C)c3)cc(-c3ccccc3)c2c1N (stereo not drawn) [US20240043440, Example 66]
1.1	CCCC[S+]([O-])c1sc2nc(-c3cnc(N)nc3)cc(-c3nccs3)c2c1N (stereo not drawn) [US20240043440, Example 69]
0.88	COCCC[S+]([O-])c1sc2nc(-c3cnco3)cc(-c3ccccc3)c2c1N (stereo not drawn) [US20240043440, Example 70]
0.98	CCCC[S+]([O-])c1sc2nc(-c3cccnc3)cc(-c3ccncc3)c2c1N (stereo not drawn) [US20240043440, Example 71]
0.93	CCCC[S+]([O-])c1sc2nc(-c3cnc(N)nc3)cc(-c3cnc(C)n3C)c2c1N (stereo not drawn) [US20240043440, Example 72]
1	CCCC[S+]([O-])c1sc2nc(-c3cccnc3)cc(-c3ncsc3C)c2c1N (stereo not drawn) [US20240043440, Example 73]
1.2	CCCC[S+]([O-])c1sc2nc(-c3cccnc3)nc(-c3ccccc3)c2c1N (stereo not drawn) [US20240043440, Example 74]
2.8	CCCC[S+]([O-])c1sc2nc(-c3cnn(C)c3)cnc2c1N (stereo not drawn) [US20240043440, Example 75]
3.6	CCCC[S+]([O-])c1sc2nc(-c3ccccn3)nc(-c3ccccc3)c2c1N (stereo not drawn) [US20240043440, Example 76]
1.8	CCCC[S+]([O-])c1sc2nc(-c3nccs3)nc(-c3nccn3C)c2c1N (stereo not drawn) [US20240043440, Example 77]
1	COCCC[S@@+]([O-])c1sc2nc(-c3cccnc3)nc(-c3ccccc3)c2c1N [US20240043440, Example 78-A]
1.4	COCCC[S+]([O-])c1sc2nc(-c3cccnc3)nc(-c3ccccc3)c2c1N (stereo not drawn) [US20240043440, Example 78]
1	COCC[S@@+]([O-])c1sc2nc(-c3cccnc3)nc(-c3ccccc3)c2c1N [US20240043440, Example 79-A]
1.5	COCC[S+]([O-])c1sc2nc(-c3cccnc3)nc(-c3ccccc3)c2c1N (stereo not drawn) [US20240043440, Example 79]
12	CCCC[S+]([O-])c1sc2nc(-c3ncccn3)nc(-c3ccccc3)c2c1N (stereo not drawn) [US20240043440, Example 80]
0.76	CCCC[S+]([O-])c1sc2nc(-c3cccnc3)nc(-c3cscn3)c2c1N (stereo not drawn) [US20240043440, Example 81]
1	CCCC[S+]([O-])c1sc2nc(-c3cccnc3)nc(-c3nccs3)c2c1N (stereo not drawn) [US20240043440, Example 82]
1.3	CCCC[S+]([O-])c1sc2nc(-c3cncnc3)nc(-c3ccccc3)c2c1N (stereo not drawn) [US20240043440, Example 83]
1.2	CCCC[S+]([O-])c1sc2nc(-c3cccnc3)nc(-c3cncn3C)c2c1N (stereo not drawn) [US20240043440, Example 84]
1.3	CCCC[S+]([O-])c1sc2nc(-c3cccnc3)nc(-c3cn(C)cn3)c2c1N (stereo not drawn) [US20240043440, Example 85]
0.56	CCCC[S@@+]([O-])c1sc2nc(-c3cccnc3)nc(-c3nccn3C)c2c1N [US20240043440, Example 86A]
41	CCCC[S@+]([O-])c1sc2nc(-c3cccnc3)nc(-c3nccn3C)c2c1N [US20240043440, Example 86B]
1.1	CCCC[S+]([O-])c1sc2nc(-c3cccnc3)nc(-c3nccn3C)c2c1N (stereo not drawn) [US20240043440, Example 86]
1.3	COCCC[S@@+]([O-])c1sc2nc(-c3cccnc3)nc(-c3ccc(F)cc3)c2c1N [US20240043440, Example 87A]
1.3	COCCC[S+]([O-])c1sc2nc(-c3cccnc3)cc(-c3cn(C)cn3)c2c1N (stereo not drawn) [US20240043440, Example 89]
2.5	COCCC[S+]([O-])c1sc2nc(-c3ccc(N)nc3)cc(-c3cccnc3)c2c1N (stereo not drawn) [US20240043440, Example 90]
2.4	COCC[S+]([O-])c1sc2nc(-c3ccc(C4COC4)nc3)cc(-c3ccc(F)cc3)c2c1N (stereo not drawn) [US20240043440, Example 91]

The molecules below were run against T1, 15-hydroxyprostaglandin dehydrogenase [NAD(+)] (assay: In vitro Assay (5 nM)).
Procedure: Each compound for inhibiting enzymatic activity of recombinant 15-PGDH (5 nM) in an in vitro assay.

IC50 [nM]	Compound
2.7	CCCC[S+]([O-])c1sc2nc(-c3nccs3)cc(-c3cnccn3)c2c1N (stereo not drawn) [US20240043440, Example 1]
2.6	CCCC[S+]([O-])c1sc2nc(-c3nccs3)cc(-c3ncccn3)c2c1N (stereo not drawn) [US20240043440, Example 8]
7.1	CCCC[S+]([O-])c1sc2nc(-c3cccs3)cc(-c3ccccc3)c2c1C (stereo not drawn) [US20240043440, Example 10]
24.7	CCCC[S+]([O-])c1cc2c(-c3ccccc3)cc(-c3cccs3)nc2s1 (stereo not drawn) [US20240043440, Example 11]
3.7	CCCC[S+]([O-])c1sc2nc(-c3nccs3)nc(-c3cnc(C)n3C)c2c1N (stereo not drawn) [US20240043440, Example 15]
2.4	CCCC[S+]([O-])c1sc2nc(-c3cccnc3)cc(-c3ccccc3)c2c1N (stereo not drawn) [US20240043440, Example 19]
3.2	CCCC[S+]([O-])c1sc2nc(-c3cncnc3)cc(-c3ccccc3)c2c1N (stereo not drawn) [US20240043440, Example 20]
4	CCCC[S+]([O-])c1sc2nc(-c3cnc(N)nc3)cc(-c3ccccc3)c2c1N (stereo not drawn) [US20240043440, Example 21]
4	CCCC[S+]([O-])c1sc2nc(-c3ccc(F)nc3)cc(-c3ccccc3)c2c1N (stereo not drawn) [US20240043440, Example 22]
3	CCCC[S+]([O-])c1sc2nc(-c3cnn(C)c3)cc(-c3ccccc3)c2c1N (stereo not drawn) [US20240043440, Example 24]
20	CCCC[S+]([O-])c1sc2nc(-c3nccs3)nc(-c3cccnc3)c2c1N (stereo not drawn) [US20240043440, Example 26]
1.6	CCCC[S+]([O-])c1sc2nc(-c3ccccc3)cnc2c1N (stereo not drawn) [US20240043440, Example 27]
1.4	CCCC[S+]([O-])c1sc2nc(-c3nccs3)cc(-c3cn(C)cn3)c2c1N (stereo not drawn) [US20240043440, Example 28]
1.4	CCCC[S@@+]([O-])c1sc2nc(-c3nccs3)cc(-c3nccn3CC)c2c1N [US20240043440, Example 29]
221	CCCC[S@+]([O-])c1sc2nc(-c3nccs3)cc(-c3nccn3CC)c2c1N [US20240043440, Example 30]
